Laboratory results: patent US20200237746A1, “HSP90 TARGETED CONJUGATES AND PARTICLE FORMULATIONS THEREOF” (TARVEDA THERAPEUTICS, INC., priority 2017, published 2020)
“And” between values parts separate entries of the source, which are not always exact repeats. Identical values can stand only once.

Experiments:
[1] = Log P of Compound A; format: physicochemical; conditions: approximate value
[2] = in vivo; conditions: rat, 1 mg/kg
Description: In addition, rat plasma concentrations of Compound A and Compound A in NP04 formulation were measured over time.

[3] = system: NCI-H69 xenograft model (small cell lung cancer); assay: Efficacy in NCI-H69 xenograft model: tumor volumes and tumor growth inhibition; format: in vivo, mice
Description: Efficacies of Compound A alone or formulated in nanoparticles were studied with NCI-H69 xenograft model (small cell lung cancer).

[4] = Compound A 25 mg/kg days 1 and 8, Day 5
[5] = Compound A 25 mg/kg days 1 and 8, Day 8
[6] = Compound A 25 mg/kg days 1 and 8, Day 16
[7] = Compound A 25 mg/kg days 1 and 8, Day 19
[8] = Compound A 50 mg/kg days 1 and 8, Day 5, 50 mg/kg
[9] = Compound A 50 mg/kg days 1 and 8, Day 8, 50 mg/kg
[10] = Compound A 50 mg/kg days 1 and 8, Day 11, 50 mg/kg
[11] = Compound A 50 mg/kg days 1 and 8, Day 16, 50 mg/kg
[12] = Compound A 50 mg/kg days 1 and 8, Day 19, 50 mg/kg
[13] = Compound A 50 mg/kg days 1 and 8, Day 22, 50 mg/kg
[14] = Compound A 150 mg/kg days 1 and 8, Day 5, 150 mg/kg
[15] = Compound A 150 mg/kg days 1 and 8, Day 8, 150 mg/kg
[16] = Compound A 150 mg/kg days 1 and 8, Day 11
[17] = Compound A 150 mg/kg days 1 and 8, Day 11, 150 mg/kg
[18] = Compound A 150 mg/kg days 1 and 8, Day 16, 150 mg/kg
[19] = Compound A 150 mg/kg days 1 and 8, Day 19, 150 mg/kg
[20] = Compound A 150 mg/kg days 1 and 8, Day 22, 150 mg/kg

SMILES: CCc1c2c(nc3ccc(OC(=O)N4CCC(CCn5ccc6cc(-n7c(O)nnc7-c7cc(C(C)C)c(O)cc7O)ccc65)CC4)cc13)-c1cc3c(c(=O)n1C2)COC(=O)[C@]3(O)CC [Compound A, (S)-4,11-diethyl-4-hydroxy-3,14-dioxo-3,4,12,14-tetrahydro-1H-pyrano[3′,4′:6,7]indolizino[1,2-b]quinolin-9-yl 4-(2-(5-(3-(2,4-dihydroxy-5-isopropylphenyl)-5-hydroxy-4H-1,2,4-triazol-4-yl)-1H-indol-1-yl)ethyl)piperidine-1-carboxylate]
- logP [1]: ~6.7
- AUC(0-inf) [2]: 3.93 µM·h
- AUC(0-t) [2]: 3.93 µM·h
- Cmax [2]: 11.8 µM
- Vd [2]: 0.0786 L/kg
- clearance [2]: 0.289 L/h/kg
- half-life [2]: 59.1 min
- TV Mean ([3]; Compound A 25 mg/kg days 1 and 8, Day 1): 273.4 mm3
- TGI % [3, 4]: 2.8%
- TV Mean [3, 4]: 390.6 mm3
- TGI % [3, 5]: 24.9%
- TV Mean [3, 5]: 423.8 mm3
- TV Mean ([3]; Compound A 25 mg/kg days 1 and 8, Day 11): 383.2 mm3
- TGI % ([3]; Compound A 25 mg/kg days 1 and 8, Day 11, 25 mg/kg): 47%
- TGI % [3, 6]: 69.3%
- TV Mean [3, 6]: 345.4 mm3
- TGI % [3, 7]: 72.2%
- TV Mean [3, 7]: 387.4 mm3
- TV Mean ([3]; Compound A 25 mg/kg days 1 and 8, Day 22): 510.4 mm3
- TGI % ([3]; Compound A 25 mg/kg days 1 and 8, Day 22, 25 mg/kg): 70%
- TV Mean ([3]; Compound A 25 mg/kg days 1 and 8, Day 26): 654.4 mm3
- TV Mean ([3]; Compound A 25 mg/kg days 1 and 8, Day 31): 866.4 mm3
- TV Mean ([3]; Compound A 50 mg/kg days 1 and 8, Day 1): 273.3 mm3
- TV individual animal ([3]; Compound A 50 mg/kg days 1 and 8, Day 1, 50 mg/kg): 222 mm3 and 255 mm3
- TV Mean ([3]; Compound A 50 mg/kg days 1 and 8, Day 5): 360.1 mm3
- TGI % [3, 8]: 10.42% and 10.4%
- TV individual animal [3, 8]: 293 mm3
- TV Mean ([3]; Compound A 50 mg/kg days 1 and 8, Day 8): 377.9 mm3
- TGI % [3, 9]: 33.02% and 33%
- TV individual animal [3, 9]: 336 mm3
- TV Mean ([3]; Compound A 50 mg/kg days 1 and 8, Day 11): 267.8 mm3
- TGI % [3, 10]: 62.98% and 63%
- TV individual animal [3, 10]: 202 mm3
- TV Mean ([3]; Compound A 50 mg/kg days 1 and 8, Day 16): 166.4 mm3
- TGI % [3, 11]: 85.23% and 85.2%
- TV individual animal [3, 11]: 136 mm3
- TV Mean ([3]; Compound A 50 mg/kg days 1 and 8, Day 19): 116.6 mm3
- TGI % [3, 12]: 91.64% and 91.6%
- TV individual animal [3, 12]: 103 mm3
- TV Mean ([3]; Compound A 50 mg/kg days 1 and 8, Day 22): 125.6 mm3
- TGI % [3, 13]: 92.63% and 92.6%
- TV individual animal [3, 13]: 91 mm3
- TV Mean ([3]; Compound A 50 mg/kg days 1 and 8, Day 26): 165.7 mm3
- TV individual animal ([3]; Compound A 50 mg/kg days 1 and 8, Day 26, 50 mg/kg): 116 mm3
- TV Mean ([3]; Compound A 50 mg/kg days 1 and 8, Day 31): 318.9 mm3
- TV individual animal ([3]; Compound A 50 mg/kg days 1 and 8, Day 31, 50 mg/kg): 256 mm3
- TV Mean ([3]; Compound A 150 mg/kg days 1 and 8, Day 1): 273.6 mm^3
- TV individual animal ([3]; Compound A 150 mg/kg days 1 and 8, Day 1, 150 mg/kg): 218 mm^3 and 266 mm^3 and 269 mm^3 and 295 mm^3 and 302 mm^3 and 335 mm^3 and 339 mm^3 and 353 mm^3 and 144 mm^3 and 215 mm^3
- TV Mean ([3]; Compound A 150 mg/kg days 1 and 8, Day 5): 353 mm^3
- TGI % [3, 14]: 12.19% and 12.9%
- TV individual animal [3, 14]: 291 mm^3 and 370 mm^3 and 363 mm^3 and 417 mm^3 and 376 mm^3 and 367 mm^3 and 406 mm^3 and 568 mm^3 and 147 mm^3 and 225 mm^3
- TV Mean ([3]; Compound A 150 mg/kg days 1 and 8, Day 8): 343.8 mm^3
- TGI % [3, 15]: 39.06% and 39.1%
- TV individual animal [3, 15]: 275 mm^3 and 362 mm^3 and 281 mm^3 and 413 mm^3 and 354 mm^3 and 393 mm^3 and 397 mm^3 and 595 mm^3 and 168 mm^3 and 200 mm^3
- TGI % [3, 16]: 65.44%
- TV Mean [3, 16]: 250 mm^3
- TGI % [3, 17]: 65.4%
- TV individual animal [3, 17]: 189 mm^3 and 236 mm^3 and 217 mm^3 and 318 mm^3 and 264 mm^3 and 322 mm^3 and 285 mm^3 and 436 mm^3 and 99 mm^3 and 134 mm^3
- TV Mean ([3]; Compound A 150 mg/kg days 1 and 8, Day 16): 109.7 mm^3
- TGI % [3, 18]: 90.26% and 90.3%
- TV individual animal [3, 18]: 89 mm^3 and 108 mm^3 and 90 mm^3 and 132 mm^3 and 123 mm^3 and 138 mm^3 and 135 mm^3 and 173 mm^3 and 46 mm^3 and 63 mm^3
- TV Mean ([3]; Compound A 150 mg/kg days 1 and 8, Day 19): 77.9 mm^3
- TGI % [3, 19]: 94.41% and 94.4%
- TV individual animal [3, 19]: 55 mm^3 and 100 mm^3 and 85 mm^3 and 95 mm^3 and 74 mm^3 and 121 mm^3 and 39 mm^3 and 135 mm^3 and 33 mm^3 and 42 mm^3
- TV Mean ([3]; Compound A 150 mg/kg days 1 and 8, Day 22): 63.5 mm^3
- TGI % [3, 20]: 96.27% and 96.3%
- TV individual animal [3, 20]: 46 mm^3 and 64 mm^3 and 72 mm^3 and 85 mm^3 and 66 mm^3 and 89 mm^3 and 71 mm^3 and 68 mm^3 and 27 mm^3 and 47 mm^3
- TV Mean ([3]; Compound A 150 mg/kg days 1 and 8, Day 26): 51.8 mm^3
- TV individual animal ([3]; Compound A 150 mg/kg days 1 and 8, Day 26, 150 mg/kg): 45 mm^3 and 52 mm^3 and 68 mm^3 (2×) and 61 mm^3 and 83 mm^3 and 77 mm^3 and 41 mm^3 and 4 mm^3 and 19 mm^3
- TV Mean ([3]; Compound A 150 mg/kg days 1 and 8, Day 31): 13.5 mm^3
- TV individual animal ([3]; Compound A 150 mg/kg days 1 and 8, Day 31, 150 mg/kg): 11 mm^3 and 17 mm^3 and 25 mm^3 and 6 mm^3 and 3 mm^3 and 44 mm^3 and 2 mm^3 and 27 mm^3 and 0 mm^3 (2×)
